Assay results published in US11202773B2, “Locally bioavailable drugs” (UNIVERSITY OF HOUSTON SYSTEM, priority 2015, dated 2021).
Marks after values point to notes of the source that are not given here.

How the values were obtained:
[1] = test system: human liver S9; assay: Sulfation by human liver S9; assay type: in vitro ADME
Description: (§1) FIG. 5D is a bar graph illustrating in vitro metabolism of phenolics. Glucuronidation rates of 6a1-6a4 by human liver and intestinal microsomes. Additional metabolic rates of various locally bioavailable COX-2 inhibitors are in Table 4. […]. The incubation systems were: for glucuronidation, 0.88 mM magnesium chloride (MgCl2), 4.4 mM saccharolactone, 0.022 mg/mL alamethicin, 3.5 mM uridine 5′-diphospho-glucuronic acid (UDPGA), 10 μM substrates and different concentrations of microsomes in 50 mM potassium phosphate buffer (pH 7.4); for sulfation, 10 mM dithiothreitol (DTT), 5 mM MgCl2, 100 μM 3′-phosphoadenosine-5′-phosphosulfate (PAPS),10 μM substrate and different concentrations of S9 fractions in 50 mM potassium phosphate buffer (pH 7.4).
(§2) In vitro tools were employed to help predict the in vivo metabolism rates of the COX-2 inhibitors that are phenolics. The microsomes and S9 fractions prepared from colon or liver were used to determine the in vivo glucuronidation and sulfation rates of the phenolic compounds, respectively. By employing microsomes and S9 fractions prepared from both rats and humans, it could be determined if the results obtained in the rat model could be reasonably extrapolated to humans. In these experiments, raloxifene and genistein, two phenolic compounds which undergo extensive first-pass metabolism, were selected as controls.

[2] = test system: rat colon microsomes; assay: Glucuronidation by rat colon microsomes; assay type: in vitro ADME; details: rat
Description: (§3) FIG. 5B is a bar graph illustrating in vitro glucuronidation of phenolics in liver and colon microsomes of rats. Glucuronidation rates of 6a1-6a4 by rat liver and colon microsomes were measured. Additional metabolic rates of various locally bioavailable COX-2 inhibitors are in Table 3. […]. The incubation systems were: for glucuronidation, 0.88 mM magnesium chloride (MgCl2), 4.4 mM saccharolactone, 0.022 mg/mL alamethicin, 3.5 mM uridine 5′-diphospho-glucuronic acid (UDPGA), 10 μM substrates and different concentrations of microsomes in 50 mM potassium phosphate buffer (pH 7.4); for sulfation, 10 mM dithiothreitol (DTT), 5 mM MgCl2, 100 μM 3′-phosphoadenosine-5′-phosphosulfate (PAPS), 10 μM substrate and different concentrations of S9 fractions in 50 mM potassium phosphate buffer (pH 7.4).
as §2

[3] = test system: rat liver S9; assay: Sulfation by rat liver S9 fractions; assay type: in vitro ADME
Description: as §3, with “FIG. 5C” for “FIG. 5B”, “vitro metabolism” for “vitro glucuronidation”, “phenolics via sulfonation pathway. Sulfation” for “phenolics in liver and colon microsomes of rats. Glucuronidation”, “colon S9 fractions.” for “colon microsomes were measured.”, “μM 3′-phosphoadeno sine-5′-phosphosulfate (PAPS),10” for “μM 3′-phosphoadenosine-5′-phosphosulfate (PAPS), 10”
as §2

[4] = test system: human intestine S9; assay: Sulfation by human intestine S9; assay type: in vitro ADME
Description: as §1, §2

[5] = test system: human liver microsomes; assay: Glucuronidation by human liver microsomes; assay type: in vitro ADME; details: human
Description: as §1, §2

[6] = test system: human intestine microsomes; assay: Glucuronidation by human intestine microsomes; assay type: in vitro ADME; details: human
Description: as §1, §2

[7] = test system: rat liver microsomes; assay: Glucuronidation by rat liver microsomes; assay type: in vitro ADME; details: rat
Description: as §3, with “FIG. 5A” for “FIG. 5B”, “vitro metabolism” for “vitro glucuronidation”, “phenolics via glucuronidation pathway.” for “phenolics in liver and colon microsomes of rats.”, “of all the new locally bioavailable COX-2 inhibitors” for “of 6a1-6a4”, “liver microsomes.” for “liver and colon microsomes were measured.”, “3′-phosphoadenosine-5′-phosphosulfate (PAPS),10” for “3′-phosphoadenosine-5′-phosphosulfate (PAPS), 10”
as §2

[8] = test system: rat colon S9; assay: Sulfation by rat colon S9 fractions; assay type: in vitro ADME
Description: as §3, with “FIG. 5C” for “FIG. 5B”, “vitro metabolism” for “vitro glucuronidation”, “phenolics via sulfonation pathway. Sulfation” for “phenolics in liver and colon microsomes of rats. Glucuronidation”, “colon S9 fractions.” for “colon microsomes were measured.”, “μM 3′-phosphoadeno sine-5′-phosphosulfate (PAPS),10” for “μM 3′-phosphoadenosine-5′-phosphosulfate (PAPS), 10”
as §2

[9] = from http://www.drugbank.ca/drugs/DB00482; cited from earlier work

Compound: O=c1c(-c2ccc(O)cc2)coc2cc(O)cc(O)c12 [Genistein, reference compound]
- Sulfation rates by liver S9 (Mean) ([1]; substrate 10 μM): 24 pmol/mg/min
- Glucuronidation rates by colon microsomes (Mean) ([2]; substrate 10 μM): 142 pmol/mg/min
- Sulfation rates by liver S9 (Mean) ([3]; substrate 10 μM): 77 pmol/mg/min
- Sulfation rates by human intestine S9 (Mean) ([4]; substrate 10 μM): 46 pmol/mg/min
- Glucuronidation rates by liver microsomes (Mean) ([5]; substrate 10 μM): 965 pmol/mg/min
- Glucuronidation rates by intestine microsomes (Mean) ([6]; substrate 10 μM): 4665 pmol/mg/min
- Glucuronidation rates by liver microsomes (Mean) ([7]; substrate 10 μM): 2199 pmol/mg/min
- Sulfation rates by colon S9 (Mean) ([8]; substrate 10 μM): 4 pmol/mg/min

Compound: Cc1ccc(-c2cc(C(F)(F)F)nn2-c2ccc(S(N)(=O)=O)cc2)cc1 [Celecoxib, celecoxib]
- LogP [9]: 4.01^b

Compound: O=C(c1ccc(OCCN2CCCCC2)cc1)c1c(-c2ccc(O)cc2)sc2cc(O)ccc12 [Raloxifene, reference compound]
- Sulfation rates by liver S9 (Mean) ([1]; 10 μM, pH 7.4): 19 pmol/mg/min
- Glucuronidation rates by colon microsomes (Mean) ([2]; 10 μM, pH 7.4): 54 pmol/mg/min
- Sulfation rates by liver S9 (Mean) ([3]; 10 μM, pH 7.4): 100 pmol/mg/min
- Sulfation rates by human intestine S9 (Mean) ([4]; 10 μM, pH 7.4): 58 pmol/mg/min
- Glucuronidation rates by liver microsomes (Mean) ([5]; 10 μM, pH 7.4): 681 pmol/mg/min
- Glucuronidation rates by intestine microsomes (Mean) ([6]; 10 μM, pH 7.4): 2846 pmol/mg/min
- Glucuronidation rates by liver microsomes (Mean) ([7]; 10 μM, pH 7.4): 402 pmol/mg/min
- Sulfation rates by colon S9 (Mean) ([8]; 10 μM, pH 7.4): 0 pmol/mg/min
